We go through nine molecules from publication PMC3155652 (Journal of inorganic biochemistry, 2011).

Ends that are not written are not given here.

As a reminder, the kon is the second-order rate constant of association.

Test [1] addresses T1, holo Alexa-CaM (Homo sapiens, UniProt P0DP23, T111W/T35C). Type of test: binding. Particulars: 2 mM EDTA, stopped-flow.
Test [2] addresses T1, holo Alexa-CaM. The test can be described thus: Apparent Kd calculated as koff/kon. Type of test: binding.
Test [3] concerns the target T1, holo Alexa-CaM. The experiment in a line: Stopped-flow association kinetics of NOS target peptides with holo Alexa-CaM. Particulars: pH 8. Type of test: binding.
The conditions of test [4]: cited from earlier work; for rate of electron transfer to heme from FMN: ref [49]; for interdomain electron transfer FMN to heme: laser flash photolysis, in the presence of CaM, ref [50], [51].
For the next test, the system named is holo CaM. The conditions noted are these: holo CaM to immobilized target peptide, ref [21]; cited from earlier work.

For `CC[C@H](C)[C@H](NC(=O)[C@H](CCCCN)NC(=O)[C@@H](NC(=O)[C@H](C)NC(=O)[C@H](CC(N)=O)NC(=O)[C@H](C)NC(=O)[C@@H](NC(=O)[C@H](CCC(=O)O)NC(=O)[C@H](CCCCN)NC(=O)[C@H](Cc1ccccc1)NC(=O)[C@@H](NC(=O)[C@H](CCCCN)NC(=O)[C@H](CCCCN)NC(=O)[C@@H](N)CCCNC(=N)N)[C@@H](C)O)C(C)C)C(C)C)C(=O)N[C@@H](CO)C(=O)N[C@@H](C)C(=O)N[C@@H](CO)C(=O)N[C@@H](CC(C)C)C(=O)N[C@@H](CCSC)C(=O)NCC(=O)O` [eNOS492–511], at holo Alexa-CaM [1], the “fast phase, share of overall FW110 increase” value is reported as 83%.

Consider RRAIGFKKLAEAVKFSAKLMGGAM [nNOS726–749], for which, at holo Alexa-CaM [2], the Kd was 5.6 nM. In addition, the “fast phase, share of overall FW110 increase” value on holo Alexa-CaM [1] worked out at 81%. For the same molecule, the kon at holo Alexa-CaM [3] came out at 6.6e+08 M⁻¹ s⁻¹.

Turning to eNOS: endothelial NOS, the “rate of electron transfer to heme from FMN” value (“rate of electron transfer” for short) in test [4] is 2 to 5 s⁻¹.

human iNOS: human inducible NOS: the “interdomain electron transfer FMN to heme” value in test [4] is 34 s⁻¹.

For iNOS: inducible NOS, in test [4], the “rate of electron transfer” value is 11 s⁻¹.

For the molecule “nNOS725–750: immobilized nNOS target peptide of previous SPR study (NGTPTKRRAIGFKKLAEAVKFSAKLM; UniProt P29475 725-750, looked up, fragment)”, the “kon (binding rate by SPR)” value in the test with holo CaM was 158000 M⁻¹ s⁻¹.

On to “rat nNOS: rat neuronal NOS in the presence of CaM”, for which the “interdomain electron transfer FMN to heme” value in test [4] is 36 s⁻¹.

B1: murine iNOS: murine inducible NOS (protein, UniProt P29477 1-1144, looked up)
Nitric oxide synthase, …: MACPWKFLFKVKSYQSDLKEEKDINNNVKKTPCAVLSPTIQDDPKSHQNGSPQLLTGTAQNVPESLDKLHVTSTRPQYVRIKNWGSGEILHDTLHHKATSDFTCKSKSCLGSIMNPKSLTRGPRDKPTPLEELLPHAIEFINQYYGSFKEAKIEEHLARLEAVTKEIETTGTYQLTLDELIFATKMAWRNAPRCIGRIQWSNLQVFDARNCSTAQEMFQHICRHILYATNNGNIRSAITVFPQRSDGKHDFRLWNSQLIRYAGYQMPDGTIRGDAATLEFTQLCIDLGWKPRYGRFDVLPLVLQADGQDPEVFEIPPDLVLEVTMEHPKYEWFQELGLKWYALPAVANMLLEVGGLEFPACPFNGWYMGTEIGVRDFCDTQRYNILEEVGRRMGLETHTLASLWKDRAVTEINVAVLHSFQKQNVTIMDHHTASESFMKHMQNEYRARGGCPADWIWLVPPVSGSITPVFHQEMLNYVLSPFYYYQIEPWKTHIWQNEKLRPRRREIRFRVLVKVVFFASMLMRKVMASRVRATVLFATETGKSEALARDLATLFSYAFNTKVVCMDQYKASTLEEEQLLLVVTSTFGNGDCPSNGQTLKKSLFMLRELNHTFRYAVFGLGSSMYPQFCAFAHDIDQKLSHLGASQLAPTGEGDELSGQEDAFRSWAVQTFRAACETFDVRSKHHIQIPKRFTSNATWEPQQYRLIQSPEPLDLNRALSSIHAKNVFTMRLKSQQNLQSEKSSRTTLLVQLTFEGSRGPSYLPGEHLGIFPGNQTALVQGILERVVDCPTPHQTVCLEVLDESGSYWVKDKRLPPCSLSQALTYFLDITTPPTQLQLHKLARFATDETDRQRLEALCQPSEYNDWKFSNNPTFLEVLEEFPSLHVPAAFLLSQLPILKPRYYSISSSQDHTPSEVHLTVAVVTYRTRDGQGPLHHGVCSTWIRNLKPQDPVPCFVRSVSGFQLPEDPSQPCILIGPGTGIAPFRSFWQQRLHDSQHKGLKGGRMSLVFGCRHPEEDHLYQEEMQEMVRKRVLFQVHTGYSRLPGKPKVYVQDILQKQLANEVLSVLHGEQGHLYICGDVRMARDVATTLKKLVATKLNLSEEQVEDYFFQLKSQKRYHEDIFGAVFSYGAKKGSALEEPKATRL
Regarding B1, the “interdomain electron transfer FMN to heme” value in test [4] is 35 s⁻¹.

B2: nNOS: neuronal NOS (protein, UniProt P29475 1-1434, looked up)
Nitric oxide synthase 1: MEDHMFGVQQIQPNVISVRLFKRKVGGLGFLVKERVSKPPVIISDLIRGGAAEQSGLIQAGDIILAVNGRPLVDLSYDSALEVLRGIASETHVVLILRGPEGFTTHLETTFTGDGTPKTIRVTQPLGPPTKAVDLSHQPPAGKEQPLAVDGASGPGNGPQHAYDDGQEAGSLPHANGLAPRPPGQDPAKKATRVSLQGRGENNELLKEIEPVLSLLTSGSRGVKGGAPAKAEMKDMGIQVDRDLDGKSHKPLPLGVENDRVFNDLWGKGNVPVVLNNPYSEKEQPPTSGKQSPTKNGSPSKCPRFLKVKNWETEVVLTDTLHLKSTLETGCTEYICMGSIMHPSQHARRPEDVRTKGQLFPLAKEFIDQYYSSIKRFGSKAHMERLEEVNKEIDTTSTYQLKDTELIYGAKHAWRNASRCVGRIQWSKLQVFDARDCTTAHGMFNYICNHVKYATNKGNLRSAITIFPQRTDGKHDFRVWNSQLIRYAGYKQPDGSTLGDPANVQFTEICIQQGWKPPRGRFDVLPLLLQANGNDPELFQIPPELVLEVPIRHPKFEWFKDLGLKWYGLPAVSNMLLEIGGLEFSACPFSGWYMGTEIGVRDYCDNSRYNILEEVAKKMNLDMRKTSSLWKDQALVEINIAVLYSFQSDKVTIVDHHSATESFIKHMENEYRCRGGCPADWVWIVPPMSGSITPVFHQEMLNYRLTPSFEYQPDPWNTHVWKGTNGTPTKRRAIGFKKLAEAVKFSAKLMGQAMAKRVKATILYATETGKSQAYAKTLCEIFKHAFDAKVMSMEEYDIVHLEHETLVLVVTSTFGNGDPPENGEKFGCALMEMRHPNSVQEERKSYKVRFNSVSSYSDSQKSSGDGPDLRDNFESAGPLANVRFSVFGLGSRAYPHFCAFGHAVDTLLEELGGERILKMREGDELCGQEEAFRTWAKKVFKAACDVFCVGDDVNIEKANNSLISNDRSWKRNKFRLTFVAEAPELTQGLSNVHKKRVSAARLLSRQNLQSPKSSRSTIFVRLHTNGSQELQYQPGDHLGVFPGNHEDLVNALIERLEDAPPVNQMVKVELLEERNTALGVISNWTDELRLPPCTIFQAFKYYLDITTPPTPLQLQQFASLATSEKEKQRLLVLSKGLQEYEEWKWGKNPTIVEVLEEFPSIQMPATLLLTQLSLLQPRYYSISSSPDMYPDEVHLTVAIVSYRTRDGEGPIHHGVCSSWLNRIQADELVPCFVRGAPSFHLPRNPQVPCILVGPGTGIAPFRSFWQQRQFDIQHKGMNPCPMVLVFGCRQSKIDHIYREETLQAKNKGVFRELYTAYSREPDKPKKYVQDILQEQLAESVYRALKEQGGHIYVCGDVTMAADVLKAIQRIMTQQGKLSAEDAGVFISRMRDDNRYHEDIFGVTLRTYEVTNRLRSESIAFIEESKKDTDEVFSS
As to B2, in test [4] (absence of CaM, ref [51]), the “interdomain electron transfer FMN to heme in absence of CaM” value is reported as “No such redox event was observed”. Further, the “rate of electron transfer” value in test [4] was 40 to 50 s⁻¹.
